In the supplement of paper PMC5908809:

Experiments:
[1] = system: normal NK cells expanded with K562-aAPC; test: drug sensitivity score (DSS) (DSS units); higher = more sensitive; extreme values may be limits of the assay; conditions: 72 h; IL-2 2.5 ng/mL
Experimental: (§1)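 Drug sensitivity and resistance testing on K562-aAPC-expanded normal NK cells: 5 concentrations (10-fold steps over a 10,000-fold range), 72 h at 37 °C, viability by CellTiter-Glo normalised to DMSO and benzethonium chloride controls; DSS from the fitted curve.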

NK-YS (IL-2 2.5 ng/mL) [2] = test: as above; conditions: 72 h
KHYG-1 (IL-2 2.5 ng/mL) [3] = test: as above; conditions: 72 h
[4] = system: normal primary NK cells, pool 1 (3 donors), resting (IL-2 0 ng/mL); test: as above; conditions: 72 h
[5] = system: normal primary NK cells, pool 1 (3 donors) (IL-2 2.5 ng/mL); test: as above; conditions: 72 h
YT (IL-2 2.5 ng/mL) [6] = test: as above; conditions: 72 h
DERL-7 (IL-2 2.5 ng/mL) [7] = test: as above; conditions: 72 h
KAI3 (IL-2 2.5 ng/mL) [8] = test: as above; conditions: 72 h
NKL (IL-2 2.5 ng/mL) [9] = test: as above; conditions: 72 h
SNK-6 (IL-2 2.5 ng/mL) [10] = test: as above; conditions: 72 h
IMC-1 (IL-2 20 ng/mL) [11] = test: as above; conditions: 72 h
[12] = system: normal primary NK cells, pool 3 (3 donors) (IL-2 2.5 ng/mL); test: as above; conditions: 72 h
NK-92 (IL-2 2.5 ng/mL) [13] = test: as above; conditions: 72 h
[14] = system: normal primary NK cells, pool 2 (3 donors) (IL-2 2.5 ng/mL); test: as above; conditions: 72 h
NK-YS (IL-2 2.5 ng/mL) [15] = test: percent inhibition of viability; higher = more inhibition; conditions: 72 h
KHYG-1 (IL-2 2.5 ng/mL) [16] = test: as above; conditions: 72 h
[17] = system: normal primary NK cells, pool 1 (3 donors), resting (IL-2 0 ng/mL); test: as above; conditions: 72 h
[18] = system: normal primary NK cells, pool 1 (3 donors) (IL-2 2.5 ng/mL); test: as above; conditions: 72 h
YT (IL-2 2.5 ng/mL) [19] = test: as above; conditions: 72 h
DERL-7 (IL-2 2.5 ng/mL) [20] = test: as above; conditions: 72 h
KAI3 (IL-2 2.5 ng/mL) [21] = test: as above; conditions: 72 h
NKL (IL-2 2.5 ng/mL) [22] = test: as above; conditions: 72 h
SNK-6 (IL-2 2.5 ng/mL) [23] = test: as above; conditions: 72 h
IMC-1 (IL-2 20 ng/mL) [24] = test: as above; conditions: 72 h
[25] = system: normal primary NK cells, pool 3 (3 donors) (IL-2 2.5 ng/mL); test: as above; conditions: 72 h
NK-92 (IL-2 2.5 ng/mL) [26] = test: as above; conditions: 72 h
[27] = system: normal primary NK cells, pool 2 (3 donors) (IL-2 2.5 ng/mL); test: as above; conditions: 72 h
[28] = system: normal NK cells expanded with K562-aAPC; test: as above; conditions: 72 h, IL-2 2.5 ng/mL
Experimental: as §1

CS(=O)(=O)N1CCc2c(-c3cnc(N)nc3)nc(N3CCOCC3)nc21 (max concentration tested 10000 nM)
Conditions | drug sensitivity score
DERL-7 (IL-2 2.5 ng/mL) [7] | 9.77
IMC-1 (IL-2 20 ng/mL) [11] | 0
KAI3 (IL-2 2.5 ng/mL) [8] | 7.4
KHYG-1 (IL-2 2.5 ng/mL) [3] | 3.5
NK-92 (IL-2 2.5 ng/mL) [13] | 9.23
NK-YS (IL-2 2.5 ng/mL) [2] | 7.16
NKL (IL-2 2.5 ng/mL) [9] | 10.4
SNK-6 (IL-2 2.5 ng/mL) [10] | 3.23
YT (IL-2 2.5 ng/mL) [6] | 7.87
[1] | 5.59
[4] | 0.17
[5] | 5.87
[12] | 4.2
[14] | 4.2

percent inhibition of viability [%]
Conditions | 1 nM | 10 nM | 100 nM | 1000 nM | 10000 nM
DERL-7 (IL-2 2.5 ng/mL) [20] | -3.09 | -4.08 | 3.85 | 42.4 | 85.6
IMC-1 (IL-2 20 ng/mL) [24] | -0.46 | 0.95 | 2.38 | -7.5 | -15.8
KAI3 (IL-2 2.5 ng/mL) [21] | 7.02 | 7.63 | 15.1 | 29.3 | 51.8
KHYG-1 (IL-2 2.5 ng/mL) [16] | 4.51 | -0.98 | -0.03 | 9.84 | 39.7
NK-92 (IL-2 2.5 ng/mL) [26] | -5.62 | -3.32 | 15.7 | 40.8 | 55.8
NK-YS (IL-2 2.5 ng/mL) [15] | 4.61 | 0.28 | 4.3 | 32.1 | 62.7
NKL (IL-2 2.5 ng/mL) [22] | 14.7 | 9.02 | 17.7 | 40.3 | 71.3
SNK-6 (IL-2 2.5 ng/mL) [23] | -21.9 | -10.1 | -16.1 | 5.8 | 44.2
YT (IL-2 2.5 ng/mL) [19] | 2.76 | 1.12 | 1.06 | 26.2 | 75.4
[17] | -25.7 | -37.9 | 3.84 | -1.15 | 14.8
[18] | -5.22 | -10.5 | 16.6 | 24.4 | 35.2
[25] | -11.3 | -9.29 | 13 | 19.5 | 28.9
[27] | -2.54 | -3.72 | -0.24 | 21.6 | 34.8
[28] | -0.53 | -3.07 | 3.27 | 24.3 | 52.9

Oc1c2ccccc2c2c3c(cccc13)N=N2 (max concentration tested 100000 nM)
Conditions | drug sensitivity score
DERL-7 (IL-2 2.5 ng/mL) [7] | 12.8
IMC-1 (IL-2 20 ng/mL) [11] | 0.95
KAI3 (IL-2 2.5 ng/mL) [8] | 8.9
KHYG-1 (IL-2 2.5 ng/mL) [3] | 9.5
NK-92 (IL-2 2.5 ng/mL) [13] | 10.2
NK-YS (IL-2 2.5 ng/mL) [2] | 6.25
NKL (IL-2 2.5 ng/mL) [9] | 10.3
SNK-6 (IL-2 2.5 ng/mL) [10] | 7.17
YT (IL-2 2.5 ng/mL) [6] | 4.53
[1] | 4.7
[4] | 0
[5] | 5.75
[12] | 3.2
[14] | 5.61

percent inhibition of viability [%]
Conditions | 10 nM | 100 nM | 1000 nM | 10000 nM | 100000 nM
DERL-7 (IL-2 2.5 ng/mL) [20] | 0.02 | 10.7 | 21.6 | 53.3 | 72.7
IMC-1 (IL-2 20 ng/mL) [24] | -9.76 | -5.66 | -7.38 | 9.45 | 15.4
KAI3 (IL-2 2.5 ng/mL) [21] | -1.06 | -0.37 | -1.44 | 36 | 77.2
KHYG-1 (IL-2 2.5 ng/mL) [16] | -9.58 | -4.25 | -1.77 | 41.2 | 79.2
NK-92 (IL-2 2.5 ng/mL) [26] | 5.13 | 5.87 | 15.3 | 43.2 | 71.4
NK-YS (IL-2 2.5 ng/mL) [15] | -9.38 | -3.05 | -7.51 | 20.3 | 61
NKL (IL-2 2.5 ng/mL) [22] | -5.72 | 1.11 | 17.1 | 43.4 | 71.7
SNK-6 (IL-2 2.5 ng/mL) [23] | -6.71 | -15.7 | -11.4 | 25.4 | 66.8
YT (IL-2 2.5 ng/mL) [19] | -6.35 | -2.65 | -2.78 | 17.4 | 42.7
[17] | 10.6 | 13.4 | 3.37 | 16 | 14.5
[18] | 1.28 | 6.88 | 11.3 | 22.6 | 57.5
[25] | -1.96 | 3 | 10.6 | 5.71 | 43.7
[27] | -8.33 | -0.93 | 6.2 | 28.3 | 40.2
[28] | -5.86 | -5.73 | -0.03 | 16.2 | 46.2
